Experimental data as given in patent US8304002B2, “Fenugreek extract for treating human and animal diseases involving flagellate parasites” (Setubio S.A.S., priority 2008, dated 2012).

Assays:
[1] = system: bacterial flora associated with H. meleagridis; assay: Effect on the bacterial flora associated with H. meleagridis; assay type: cell-based; conditions: 48 h of culture, FIG. 4
Procedure: An aliquot of H. meleagridis culture was taken. Four serial dilutions (10^-4 to 10^-7) were made in liquid tryptone soya medium. 20 μL of each dilution was spread onto tryptone soya agar medium. Incubation at 37° C. overnight. The effects of different concentrations of […] and of DMZ on the associated bacterial flora after 48 h of culture were then compared. The results are expressed in number of bacteria per mL (FIG. 4). The extract […] was histomonicidal from 1 mg/mL. It had no effect on the associated bacterial flora. Dimetridazole is histomonicidal from 25 μg/mL at 72 h. On the other hand it is bactericidal from 400 μg/mL.

Histomonas meleagridis [2] = assay: Regrowth of H. meleagridis after transfer into fresh medium following 72 h treatment; assay type: cell-based
Procedure: After 72 h of treatment with […] and DMZ, the parasites were put into fresh medium for 96 h to analyse the histomonicidal effect (FIG. 5).

Histomonas meleagridis [3] = assay: Anti-Histomonas activity: in vitro culture with parasite counts; assay type: cell-based
Procedure: The strain of H. meleagridis was isolated from the caeca of turkeys experimentally infested with eggs of the H. gallinarum worm. The parasites were cultured at 39° C. in sealed glass tubes containing 3 mL of supplemented M199 medium. They were transferred twice a week. To do this, 80 μL of preculture were added to 3 mL of fresh medium previously heated in a water bath to 39° C. Counting was performed in a Malassez counting chamber after staining with 0.4% trypan blue. The 100 fields of the chamber were counted. […] was tested at different concentrations. A parasite count was performed three times after 72 h incubation. A negative control was included by replacing the extract with the solvent only (sterile water). To study the dose-dependent effect, each test was performed in triplicate, with different concentrations, counting the parasites at 24 h, 48 h and 72 h. A negative control was included by replacing the extract with the solvent only.

MRC5 cells = assay: Cytotoxicity test (protein assay, SRB) on MRC5 cells; assay type: cell-based, human; conditions: MRC5, 100 μg/mL to 2 mg/mL, 24 h and 48 h
Procedure: The MRC5 cells (primary human foetal lung fibroblasts) were cultured in 25 or 75 cm^2 dishes in supplemented MEM (Minimum Essential Medium, Life Technologies Gibco), in a chamber at 37° C. and % CO2. 500 mL of MEM was supplemented with foetal calf serum (10% final), glutamine 2 mM (5 mL), antibiotics (5 mL penicillin/streptomycin i.e. […], 0.5 mL ampicillin i.e. 10 μg/ml, 0.25 mL gentamicin i.e. 25 μg/mL) and fungicides (5 mL fungizone i.e. 2.5 μg/mL). When the cells reached confluence, they were trypsinised and transferred into 96-well plates at […]. They were then incubated at 37° C., 5% CO2 for 24 h before starting the test. The plates were duplicated for a protein assay after 24 and 48 h. This test consists of culturing the cells in the presence of extracts, then precipitating total proteins to determine their concentration. The MRC5 cells were put into contact with 200 μL of supplemented MEM containing different concentrations of the extracts to be tested. […] Each dilution was tested in triplicate to produce a mean. Two controls were used: • a negative control: cells in the supplemented MEM only • a positive control: cells in the presence of a mixture of the supplemented MEM and 50% DMSO The plates were then incubated at 37° C., 5% CO2 for 24 or 48 h. […] The contents of the wells were homogenised and the optical density read at 490 nm. […]

[4] = 25 μg/mL for 72 h, then fresh medium 96 h

SMILES	concentration from which bactericidal [1] [µg/mL]	regrowth of the culture (Histomonas meleagridis [2]; 12.5 μg/mL for 72 h, then fresh medium 96 h)	growth relative to the control after transfer (Histomonas meleagridis [2]; [4])	regrowth of the culture (Histomonas meleagridis [2]; [4])	regrowth of the culture (Histomonas meleagridis [2]; 400 μg/mL for 72 h, then fresh medium 96 h)	regrowth of the culture (Histomonas meleagridis [2]; 1 mg/mL for 72 h, then fresh medium 96 h)	concentration from which histomonicidal (confirmed by regrowth) (Histomonas meleagridis [2]; 72 h treatment, then fresh medium 96 h) [µg/mL]	histomonicidal or histomonostatic (confirmed by regrowth) (Histomonas meleagridis [2]; at 25 μg/mL)	effect on growth of H. meleagridis (in words) (Histomonas meleagridis [3]; FIG. 3, tested in parallel S520/DMZ)	concentration from which histomonicidal (Histomonas meleagridis [3]; at 72 h) [µg/mL]	concentration at which parasiticidal (Histomonas meleagridis [3]; growth of H. meleagridis, FIG. 3) [µg/mL]	cytotoxicity for human cells in culture (MRC5 cells)	inhibition at 2000 µg/mL (Histomonas meleagridis [3]; Histomonas meleagridis, 2 mg/mL, at 72 h, read-out: inhibition of proliferation of H. meleagridis) [%]	effect on the proliferation of H. meleagridis (Histomonas meleagridis [3]; at 2 mg/mL)
Cc1ncc([N+](=O)[O-])n1C [DMZ, dimetridazole]	≥ 400	regrowth	about 30%	regrowth	No regrowth	No regrowth	≥ 400	histomonostatic	parasitostatic	≥ 25	25			
O=C(N/N=C/c1ccc([N+](=O)[O-])o1)c1cc([N+](=O)[O-])cc([N+](=O)[O-])c1O [Nifursol]												not toxic	38	slightly histomonostatic
